# Laboratory results reported in PMC11655065, “Antimicrobial activity of iron-depriving pyoverdines against human opportunistic pathogens” (eLife, 2024).
# Where two headings read alike, the source gives them in different places. Square brackets hold non-standard residues; d marks the D form. Side chains are listed from the residue outwards. Peptide text beside a SMILES is read from it. * marks the point of attachment. ξ: configuration not given here. X1 = O=C(O)CCC(=O)NC1=Cc2cc(O)c(O)cc2N2C1=NCCC2C(=O)*; NH(1-OH-2-oxopiperidin-3-yl) = O=C1C(N*)CCCN1O; ξAsp(3ξ-OH) = NC(C(=O)O)C(O)C(=O)O
# How the values were obtained:
# P. aeruginosa PAO1 = test: Dose–response growth inhibition in CAA medium; format: cell-based, Pseudomonas aeruginosa; details: HPLC-purified ferribactin, concentration gradient
# Procedure: (§1) Pathogen overnight cultures were grown in either 8 mL tryptic soy broth (TSB; for the two S. aureus strains) or 8 mL lysogeny broth (LB; all other pathogens) in 50 mL tubes at 37°C and 220 rpm agitation. Following two washing steps with 0.8% NaCl, we adjusted the overnight cultures to an optical density at 600 nm (OD600) of 1. For overnights of environmental isolates, we followed the same procedure when working with low sample sizes, with the only difference being that culturing occurred at 28°C. For the large-scale screening experiments, we grew environmental isolates in 200 µL LB in 96-well plates shaken at 170 rpm. Cultures from plates were then directly used for experiments. For all main experiments (screen for bioactive pyoverdines and dose–response curves), we used CAA medium (1% casamino acids, 5 mM K2HPO4 * 3H2O,1 mM MgSO4*7 H2O, 25 mM HEPES buffer). […]
# (§2) To determine the inhibition potential of crude- and HPLC-purified pyoverdines, as well as ferribactin, we subjected A. baumannii. […] We incubated the plates at 37°C statically in the plate reader and measured the OD600 every 15 min for 24 hr. […] We subtracted the blank values and the background values caused by the treatment of the respective extract concentration from the measured growth data and calculated the integral (area under the growth curve) using the R package Growthcurver ([Sprouffske and Wagner, 2016]). […]
# A. baumannii [1] = test: Dose–response growth inhibition in CAA medium; format: cell-based, Acinetobacter baumannii; details: for inhibition of A. baumannii with iron supplementation: crude pyoverdine
# Procedure: (§3) Pathogen overnight cultures were grown in either 8 mL tryptic soy broth (TSB; for the two S. aureus strains) or 8 mL lysogeny broth (LB; all other pathogens) in 50 mL tubes at 37°C and 220 rpm agitation. Following two washing steps with 0.8% NaCl, we adjusted the overnight cultures to an optical density at 600 nm (OD600) of 1. For overnights of environmental isolates, we followed the same procedure when working with low sample sizes, with the only difference being that culturing occurred at 28°C. For the large-scale screening experiments, we grew environmental isolates in 200 µL LB in 96-well plates shaken at 170 rpm. Cultures from plates were then directly used for experiments. For all main experiments (screen for bioactive pyoverdines and dose–response curves), we used CAA medium (1% casamino acids, 5 mM K2HPO4 * 3H2O,1 mM MgSO4*7 H2O, 25 mM HEPES buffer). This medium contains low levels of iron, triggering pyoverdine production ([Cunrath et al., 2016]).
# (§4) To determine the inhibition potential of crude- and HPLC-purified pyoverdines, as well as ferribactin, we subjected A. baumannii. K. pneumoniae, P. aeruginosa, and S. aureus to serially diluted extracts. For this, the extracts were dissolved in CAA medium, filter sterilized, and diluted in the same medium. Bacterial overnight cultures were grown and prepared as described above and added to a total of 200 µL medium on a 96-well plate with four replicates per extract dilution. […] We incubated the plates at 37°C statically in the plate reader and measured the OD600 every 15 min for 24 hr. Before each measurement, plates were shaken for 15 s. We repeated the experiment up to five times with different initial extract starting concentrations. This was done to ensure that the full dose response to pyoverdine was captured. Thus, sample size per individual extract concentration varied between 4 and 20 replicates. We subtracted the blank values and the background values caused by the treatment of the respective extract concentration from the measured growth data and calculated the integral (area under the growth curve) using the R package Growthcurver ([Sprouffske and Wagner, 2016]). We then expressed growth relative to the control medium, where bacteria grew in CAA without extract or antibiotic addition. Finally, we plotted extract/antibiotic concentration vs. relative growth and fitted dose–response curves (see below).
# S. aureus JE2 = test: Dose–response growth inhibition in CAA medium; format: cell-based, Staphylococcus aureus
# Procedure: as §1, §2
# K. pneumoniae [2] = test: Dose–response growth inhibition in CAA medium; format: cell-based, Klebsiella pneumoniae
# Procedure: as §3, §4
# [3] = cited from earlier work; for iron association constant: ref Bohac et al., 2019, Shapiro and Wencewicz, 2016, Sheldon and Skaar, 2020
# P. aeruginosa = details: 2012, 2013, cited from earlier work
# A. baumannii [4] = test system: A. baumannii; set-up: method as in Visca et al., 2013; de Léséleuc et al., 2012; details: ref Visca et al., 2013; de Léséleuc et al., 2012; cited from earlier work
# K. pneumoniae [5] = test: Infection model: treatment of infected larvae; format: in vivo, Galleria mellonella
# Procedure: (§5) We tested the efficacy of pyoverdine to treat infections in larvae of the host model G. mellonella. All larvae were ordered from a local vendor (Bait Express GmbH, Basel, Switzerland) and stored without food at 16°C in the dark for up to 3 days. In a first step, we determined the mean weight of 336 final instar G. mellonella larvae (mean = 435 mg). For all subsequent experiments, we weighed the larvae and only used individuals with a mean weight ±20% (range: 340–530 mg). Larvae were immobilized on ice for 15 min, surface-sterilized with 70% ethanol, and randomly distributed to individual wells on 24-well plates. Ten larvae were used per infection–treatment combination. To inject bacteria and administer treatments, we used sterile needles (Sterican 26G, 0.45 × 12 mm [Braun]) and syringes (1 mL injekt-F [Braun]) attached to a syringe pump (New Era Pump Systems Inc, model NE-300) set to a flow rate of 5 mL/hr. For both infection and treatment delivery, a volume of 10 µL per larvae was injected between the posterior larval prolegs.
# (§6) On the pathogen side, we determined the LD50 (lethal dose, killing 50% of the larvae) for A. baumannii (1.8 * 10^5 CFU/larvae) and K. pneumoniae (8.9 * 10^5 CFU/larvae) (Figure 5—figure supplement 1). For P. aeruginosa, we use 56 CFU/larvae because all doses tested killed 100% of the larvae (Figure 5—figure supplement 1). As negative control, we administered 10 µL/larvae of sterile PBS. Following infections, larvae were individually placed in wells of 24-well plates and incubated at 37°C in the dark for 4 hr.
# (§7) On the treatment side, we used pyoverdines 3A06, 3G07, and s3b09 at three concentrations that were non-toxic for the NSC-34 cells. For this, we prepared stocks of 60 mg/mL, 30 mg/mL, and 6 mg/mL of crude pyoverdines. Since the injected treatment volume was 10 µL per larvae, the final pyoverdine concentrations were 0.6 mg, 0.3 mg, and 0.06 mg per larvae, respectively. When scaling theses concentrations to the doses used for the […] dose–response curves (Figure 4), the relative pyoverdine concentrations were 0.1, 0.05, and 0.01. Pyoverdine treatments were administered 4 hr after the infection through injections. Prior to treatment, larvae were immobilized on ice for 15 min. We also applied treatments to larvae infected with sterile PBS to quantify potential negative effects of the treatment in the absence of an infection. Following treatment, larvae were put back to their allocated well of the 24-well plate and kept at 37°C in the dark.
# (§8) From the 12th hour post infection (hpi) onward, we regularly checked the survival of all larvae for a total of 48 hpi. Specifically, larvae were poked with a pipette tip and individuals not responding to the physical stimulation were considered dead. […]
# A. baumannii [6] = test: Infection model: treatment of infected larvae; format: in vivo, Galleria mellonella; details: injected 4 hr post infection
# Procedure: as §5, §6, §7, §8
# in vitro = format: cell-based; details: sheep
# Procedure: To determine the hemolytic activity of pyoverdines, we quantified sheep erythrocyte hemolysis at different pyoverdine concentrations. We first centrifuged 25 mL of fresh sheep blood (Chemie Brunschwig AG, Switzerland) in a 50 mL tube at 1500 × g for 5 min at 4°C. Plasma was then gently aspirated, replaced by PBS, and tubes were gently inverted to mix. This washing procedure was repeated three times. Pyoverdines were diluted in PBS to final relative concentrations of 1, 0.5, 0.25, 0.2, 0.02, and 0.002. PBS and 0.1% Triton X-100 (Sigma-Aldrich) served as negative and positive control, respectively. 100 µL erythrocyte solution was mixed with either 100 µL pyoverdine solution or the controls in a 96-well plate in triplicates. Following an incubation at 37°C and 120 rpm for 1 hr, the plate was centrifuged at 1036 × g for 5 min at 4°C. Subsequently, 100 µL of the supernatant were transferred to a new 96-well plate. Hemoglobin release was measured at 570 nm in the plate reader and the percent hemolysis was calculated relative to the positive control [% hemolysis = (OD570 of sample – negative control)/(positive control – negative control)].
# [7] = HPLC-purified ferribactin, concentration gradient
compound,measurement,setting,value
ferribactin [reference compound],growth inhibition,P. aeruginosa PAO1,no growth inhibition
same,growth inhibition,"A. baumannii [1]; HPLC-purified ferribactin, concentration gradient, CAA medium",no growth inhibition
same,growth inhibition,S. aureus JE2; [7],no growth inhibition
same,growth inhibition,K. pneumoniae [2]; [7],no growth inhibition
CC(=O)N(O)CCCCCNC(=O)CCC(=O)N(O)CCCCCNC(=O)CCC(=O)N(O)CCCCCN [desferoxamine],iron affinity,"[3]; ref Elalfy et al., 2023",10^27 M^–1
O=C(N[C@H]1COC(=O)[C@@H](NC(=O)c2cccc(O)c2O)COC(=O)[C@@H](NC(=O)c2cccc(O)c2O)COC1=O)c1cccc(O)c1O [enterobactin],iron affinity,"[3]; ref Harris et al., 1979",10^52 M^–1
Cc1c(O)c(=O)ccn1C [deferiprone],minimum inhibitory concentration (MIC) relative to plasma levels in human therapy,"P. aeruginosa; ref Thompson et al., Visca et al.",up to 36.7 times
same,growth suppression at sub-MIC levels,"P. aeruginosa; ref Visca et al., de Léséleuc et al.",only partially suppressed the growth
same,growth suppression at sub-MIC levels,A. baumannii [4],only partially suppressed the growth
fimsbactin,iron association constant,[3],10^27 M^–1
acinetobactin,iron association constant,[3],10^26 M^–1
CC(NC(=O)C(NC(=O)C(CO)NC(=O)C(NC(=O)C(N)CCCCNC(=O)C(CC(=O)O)NC(=O)C1CCN=C2C(NC(=O)CCC(=O)O)=Cc3cc(O)c(O)cc3N21)C(O)C(=O)O)C(C)O)C(=O)NC(C(=O)NC(CCCCN)C(=O)NC1CCCN(O)C1=O)C(C)O (stereo not shown) [pyoverdine s3b09] (H-K([Asp-X1])[ξAsp(3ξ-OH)]STATK-{NH(1-OH-2-oxopiperidin-3-yl)}; configuration not given here),IC50,"A. baumannii [1]; Acinetobacter baumannii, HPLC-purified pyoverdine, CAA medium, growth relative to untreated control",5.04 µg/mL
same,inhibition of A. baumannii with iron supplementation,A. baumannii [1]; CAA medium + 40 µM FeCl3,greatly reduced
same,inhibition of A. baumannii with iron supplementation,A. baumannii [1]; CAA medium + 200 µM FeCl3,completely stalled
same,IC50,"S. aureus JE2; Staphylococcus aureus, JE2, HPLC-purified pyoverdine, growth relative to untreated control",12.2 µg/mL
same,growth reduction (model fit),K. pneumoniae [2]; HPLC-purified pyoverdine,9–12%
same,growth reduction (model fit),K. pneumoniae [2]; crude-purified pyoverdine,9–12%
same,relationship between pyoverdine concentration and time-to-death,"K. pneumoniae [5]; relative concentrations 0-0.1, quadratic term significant",hump-shaped
same,"reduction of the risk of death, significance","A. baumannii [6]; same tendency observed, z = –1.496, p=0.135",not significant
same,"hemolysis at 1 h, 1 relative concentration",in vitro,5.92%
CC(O)C(NC(=O)C(CO)NC(=O)C(NC(=O)C(N)CCCCNC(=O)C(CC(=O)O)NC(=O)C1CCN=C2C(NC(=O)CCC(=O)O)=Cc3cc(O)c(O)cc3N21)C(O)C(=O)O)C(=O)NC(CO)C(=O)NC(CCCCN)C(=O)NC1CCCN(O)C1=O (stereo not shown) [pyoverdine 3A06] (H-K([Asp-X1])[ξAsp(3ξ-OH)]STSK-{NH(1-OH-2-oxopiperidin-3-yl)}; configuration not given here),growth reduction (model fit),K. pneumoniae [2]; crude-purified pyoverdine,9–12%
same,reduction of the risk of death (hazard) vs untreated infection,"K. pneumoniae [5]; relative concentration 0.01, injected 4 hr post infection, 48 hr, Cox regression",51.5%
same,reduction of the risk of death (hazard) vs untreated infection,"A. baumannii [6]; relative concentration 0.05, 48 hr, Cox regression",57.9%
same,"hemolysis at 1 h, 1 relative concentration",in vitro,2.01%
pyoverdine,"iron affinity (Ka, association constant)","[3]; ref Meyer and Abdallah, 1978",10^32 M^–1
